PubChem BioAssay (NCI)
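Where inhibition never reached the appropriate level, the endpoint shown equals the highest concentration tested. Otherwise, values were interpolated linearly from a five-concentration, 48-hour dose response in 96-well plates. TGI: total growth inhibition.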

Columns and labels:
Experiment in all cases: NCI tumour cell line growth inhibition, 48 h
786-0 renal = test system: 786-0 renal
A498 renal = test system: A498 renal
A549 NSCLC = test system: A549 NSCLC
ACHN renal = test system: ACHN renal
CAKI-1 renal = test system: CAKI-1 renal
CCRF-CEM leukemia = test system: CCRF-CEM leukemia
COLO 205 colon = test system: COLO 205 colon
DLD-1 colon = test system: DLD-1 colon
DMS 114 small cell lung = test system: DMS 114 small cell lung
DMS 273 small cell lung = test system: DMS 273 small cell lung
EKVX NSCLC = test system: EKVX NSCLC
HCC-2998 colon = test system: HCC-2998 colon
HCT-116 colon = test system: HCT-116 colon
HCT-15 colon = test system: HCT-15 colon
HL-60(TB) leukemia = test system: HL-60(TB) leukemia
HOP-62 NSCLC = test system: HOP-62 NSCLC
IGROV1 ovarian = test system: IGROV1 ovarian
K-562 leukemia = test system: K-562 leukemia
KM12 colon = test system: KM12 colon
KM20L2 colon = test system: KM20L2 colon
LOX IMVI melanoma = test system: LOX IMVI melanoma
LXFL 529 NSCLC = test system: LXFL 529 NSCLC
M14 melanoma = test system: M14 melanoma
M19-MEL melanoma = test system: M19-MEL melanoma
MALME-3M melanoma = test system: MALME-3M melanoma
MOLT-4 leukemia = test system: MOLT-4 leukemia
NCI-H23 lung = test system: NCI-H23 lung
NCI-H460 lung = test system: NCI-H460 lung
NCI-H522 lung = test system: NCI-H522 lung
OVCAR-3 ovarian = test system: OVCAR-3 ovarian
OVCAR-4 ovarian = test system: OVCAR-4 ovarian
OVCAR-5 ovarian = test system: OVCAR-5 ovarian
OVCAR-8 ovarian = test system: OVCAR-8 ovarian
RPMI-8226 leukemia = test system: RPMI-8226 leukemia
SF-268 CNS = test system: SF-268 CNS
SF-539 CNS = test system: SF-539 CNS
SK-MEL-2 melanoma = test system: SK-MEL-2 melanoma
SK-MEL-28 melanoma = test system: SK-MEL-28 melanoma
SK-MEL-5 melanoma = test system: SK-MEL-5 melanoma
SK-OV-3 ovarian = test system: SK-OV-3 ovarian
SN12C renal = test system: SN12C renal
SNB-19 CNS = test system: SNB-19 CNS
SNB-75 CNS = test system: SNB-75 CNS
SNB-78 CNS = test system: SNB-78 CNS
SR leukemia = test system: SR leukemia
SW-620 colon = test system: SW-620 colon
TK-10 renal = test system: TK-10 renal
U251 CNS = test system: U251 CNS
UACC-257 melanoma = test system: UACC-257 melanoma
UACC-62 melanoma = test system: UACC-62 melanoma
UO-31 renal = test system: UO-31 renal
XF 498 CNS = test system: XF 498 CNS
HT29 colon = test system: HT29 colon
NCI-H226 lung = test system: NCI-H226 lung
RXF 393 renal = test system: RXF 393 renal
SF-295 CNS = test system: SF-295 CNS
HOP-92 NSCLC = test system: HOP-92 NSCLC

N#Cc1c2nc3ccccc3nc2n2ccccc12
TGI (786-0 renal): > 100 µM
TGI (A498 renal): > 100 µM
TGI (A549 NSCLC): > 100 µM
TGI (ACHN renal): > 100 µM
TGI (CAKI-1 renal): > 100 µM
TGI (CCRF-CEM leukemia): > 100 µM
TGI (COLO 205 colon): > 100 µM
TGI (DLD-1 colon): > 100 µM
TGI (DMS 114 small cell lung): > 100 µM
TGI (DMS 273 small cell lung): > 100 µM
TGI (EKVX NSCLC): > 100 µM
TGI (HCC-2998 colon): > 100 µM
TGI (HCT-116 colon): > 100 µM
TGI (HCT-15 colon): > 100 µM
TGI (HL-60(TB) leukemia): > 100 µM
TGI (HOP-62 NSCLC): > 100 µM
TGI (IGROV1 ovarian): > 100 µM
TGI (K-562 leukemia): > 100 µM
TGI (KM12 colon): > 100 µM
TGI (KM20L2 colon): > 100 µM
TGI (LOX IMVI melanoma): > 100 µM
TGI (LXFL 529 NSCLC): > 100 µM
TGI (M14 melanoma): > 100 µM
TGI (M19-MEL melanoma): > 100 µM
TGI (MALME-3M melanoma): > 100 µM
TGI (MOLT-4 leukemia): > 100 µM
TGI (NCI-H23 lung): > 100 µM
TGI (NCI-H460 lung): > 100 µM
TGI (NCI-H522 lung): > 100 µM
TGI (OVCAR-3 ovarian): > 100 µM
TGI (OVCAR-4 ovarian): > 100 µM
TGI (OVCAR-5 ovarian): > 100 µM
TGI (OVCAR-8 ovarian): > 100 µM
TGI (RPMI-8226 leukemia): > 100 µM
TGI (SF-268 CNS): > 100 µM
TGI (SF-539 CNS): > 100 µM
TGI (SK-MEL-2 melanoma): > 100 µM
TGI (SK-MEL-28 melanoma): > 100 µM
TGI (SK-MEL-5 melanoma): > 100 µM
TGI (SK-OV-3 ovarian): > 100 µM
TGI (SN12C renal): > 100 µM
TGI (SNB-19 CNS): > 100 µM
TGI (SNB-75 CNS): > 100 µM
TGI (SNB-78 CNS): > 100 µM
TGI (SR leukemia): > 100 µM
TGI (SW-620 colon): > 100 µM
TGI (TK-10 renal): > 100 µM
TGI (U251 CNS): > 100 µM
TGI (UACC-257 melanoma): > 100 µM
TGI (UACC-62 melanoma): > 100 µM
TGI (UO-31 renal): > 100 µM
TGI (XF 498 CNS): > 100 µM

COC(=O)c1nn(-c2ccccc2)c(=O)cc1N=[N+]=[N-]
TGI (786-0 renal): > 100 µM
TGI (A498 renal): > 100 µM
TGI (A549 NSCLC): > 100 µM
TGI (ACHN renal): > 100 µM
TGI (CAKI-1 renal): > 100 µM
TGI (CCRF-CEM leukemia): > 100 µM
TGI (COLO 205 colon): > 100 µM
TGI (DMS 114 small cell lung): > 100 µM
TGI (DMS 273 small cell lung): > 100 µM
TGI (EKVX NSCLC): > 100 µM
TGI (HCC-2998 colon): > 100 µM
TGI (HCT-116 colon): > 100 µM
TGI (HCT-15 colon): > 100 µM
TGI (HL-60(TB) leukemia): > 100 µM
TGI (HOP-62 NSCLC): > 100 µM
TGI (HT29 colon): > 100 µM
TGI (IGROV1 ovarian): > 100 µM
TGI (K-562 leukemia): > 100 µM
TGI (KM12 colon): > 100 µM
TGI (KM20L2 colon): > 100 µM
TGI (LOX IMVI melanoma): > 100 µM
TGI (LXFL 529 NSCLC): > 100 µM
TGI (M14 melanoma): > 100 µM
TGI (M19-MEL melanoma): > 100 µM
TGI (MALME-3M melanoma): > 100 µM
TGI (MOLT-4 leukemia): > 100 µM
TGI (NCI-H226 lung): > 100 µM
TGI (NCI-H23 lung): > 100 µM
TGI (NCI-H460 lung): > 100 µM
TGI (NCI-H522 lung): > 100 µM
TGI (OVCAR-3 ovarian): > 100 µM
TGI (OVCAR-4 ovarian): > 100 µM
TGI (OVCAR-5 ovarian): > 100 µM
TGI (OVCAR-8 ovarian): > 100 µM
TGI (RPMI-8226 leukemia): > 100 µM
TGI (RXF 393 renal): > 100 µM
TGI (SF-268 CNS): > 100 µM
TGI (SF-295 CNS): > 100 µM
TGI (SF-539 CNS): > 100 µM
TGI (SK-MEL-28 melanoma): > 100 µM
TGI (SK-MEL-5 melanoma): > 100 µM
TGI (SK-OV-3 ovarian): > 100 µM
TGI (SN12C renal): > 100 µM
TGI (SNB-19 CNS): > 100 µM
TGI (SNB-78 CNS): > 100 µM
TGI (SR leukemia): > 100 µM
TGI (SW-620 colon): > 100 µM
TGI (TK-10 renal): > 100 µM
TGI (U251 CNS): > 100 µM
TGI (UACC-257 melanoma): > 100 µM
TGI (UACC-62 melanoma): > 100 µM
TGI (UO-31 renal): > 100 µM
TGI (XF 498 CNS): > 100 µM

O=C(/C=C/c1c(O)ccc2ccccc12)c1ccccc1Cl
TGI (786-0 renal): > 100 µM
TGI (A498 renal): > 100 µM
TGI (A549 NSCLC): > 100 µM
TGI (ACHN renal): > 100 µM
TGI (CAKI-1 renal): > 100 µM
TGI (CCRF-CEM leukemia): 50.7 µM
TGI (COLO 205 colon): 31.9 µM
TGI (DLD-1 colon): > 100 µM
TGI (DMS 114 small cell lung): 53.3 µM
TGI (DMS 273 small cell lung): > 100 µM
TGI (EKVX NSCLC): > 100 µM
TGI (HCC-2998 colon): > 100 µM
TGI (HCT-116 colon): 61.3 µM
TGI (HCT-15 colon): > 100 µM
TGI (HL-60(TB) leukemia): 35.1 µM
TGI (HOP-62 NSCLC): > 100 µM
TGI (HOP-92 NSCLC): 75 µM
TGI (HT29 colon): > 100 µM
TGI (IGROV1 ovarian): > 100 µM
TGI (K-562 leukemia): 53.4 µM
TGI (KM12 colon): > 100 µM
TGI (KM20L2 colon): > 100 µM
TGI (LOX IMVI melanoma): 53.8 µM
TGI (LXFL 529 NSCLC): > 100 µM
TGI (M14 melanoma): 34.9 µM
TGI (M19-MEL melanoma): 28.3 µM
TGI (MALME-3M melanoma): 41.5 µM
TGI (MOLT-4 leukemia): > 100 µM
TGI (NCI-H226 lung): > 100 µM
TGI (NCI-H23 lung): 52.2 µM
TGI (NCI-H460 lung): > 100 µM
TGI (NCI-H522 lung): 90 µM
TGI (OVCAR-3 ovarian): > 100 µM
TGI (OVCAR-4 ovarian): > 100 µM
TGI (OVCAR-5 ovarian): > 100 µM
TGI (OVCAR-8 ovarian): > 100 µM
TGI (RPMI-8226 leukemia): > 100 µM
TGI (RXF 393 renal): > 100 µM
TGI (SF-268 CNS): > 100 µM
TGI (SF-295 CNS): 73.9 µM
TGI (SF-539 CNS): 80.6 µM
TGI (SK-MEL-2 melanoma): 92.3 µM
TGI (SK-MEL-28 melanoma): 46.9 µM
TGI (SK-MEL-5 melanoma): 32.3 µM
TGI (SK-OV-3 ovarian): > 100 µM
TGI (SN12C renal): 86.5 µM
TGI (SNB-19 CNS): > 100 µM
TGI (SNB-75 CNS): > 100 µM
TGI (SNB-78 CNS): > 100 µM
TGI (SW-620 colon): 57.1 µM
TGI (TK-10 renal): > 100 µM
TGI (U251 CNS): > 100 µM
TGI (UACC-257 melanoma): 46.8 µM
TGI (UACC-62 melanoma): 29.9 µM
TGI (UO-31 renal): > 100 µM
TGI (XF 498 CNS): 62.2 µM
